pIC50: −log10 of the molar value.
biological target: recombinant human LRRK2 (catalytic domain only [amino acids 970-2527], GST-tagged) (Homo sapiens (Human), UniProt Q5S007); test: LRRK2 Enzymatic Assay; type: biochemical; conditions: LRRKtide substrate, [32P]-ATP
Outline: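 GST-tagged catalytic domain (aa 970-2527) at 30 nM with 20 μM LRRKtide in HEPES pH 7.5/MgCl2 buffer, 1% DMSO; compounds (10 μM to 0.5 nM) preincubated 20 min, then [32P]-ATP added for 2 h at room temperature. P81 phosphocellulose capture; activity as % of vehicle, IC50 by curve fit.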

recombinant human LRRK2 (catalytic domain only [amino acids 970-2527], GST-tagged), sequence (Q5S007 970-2527): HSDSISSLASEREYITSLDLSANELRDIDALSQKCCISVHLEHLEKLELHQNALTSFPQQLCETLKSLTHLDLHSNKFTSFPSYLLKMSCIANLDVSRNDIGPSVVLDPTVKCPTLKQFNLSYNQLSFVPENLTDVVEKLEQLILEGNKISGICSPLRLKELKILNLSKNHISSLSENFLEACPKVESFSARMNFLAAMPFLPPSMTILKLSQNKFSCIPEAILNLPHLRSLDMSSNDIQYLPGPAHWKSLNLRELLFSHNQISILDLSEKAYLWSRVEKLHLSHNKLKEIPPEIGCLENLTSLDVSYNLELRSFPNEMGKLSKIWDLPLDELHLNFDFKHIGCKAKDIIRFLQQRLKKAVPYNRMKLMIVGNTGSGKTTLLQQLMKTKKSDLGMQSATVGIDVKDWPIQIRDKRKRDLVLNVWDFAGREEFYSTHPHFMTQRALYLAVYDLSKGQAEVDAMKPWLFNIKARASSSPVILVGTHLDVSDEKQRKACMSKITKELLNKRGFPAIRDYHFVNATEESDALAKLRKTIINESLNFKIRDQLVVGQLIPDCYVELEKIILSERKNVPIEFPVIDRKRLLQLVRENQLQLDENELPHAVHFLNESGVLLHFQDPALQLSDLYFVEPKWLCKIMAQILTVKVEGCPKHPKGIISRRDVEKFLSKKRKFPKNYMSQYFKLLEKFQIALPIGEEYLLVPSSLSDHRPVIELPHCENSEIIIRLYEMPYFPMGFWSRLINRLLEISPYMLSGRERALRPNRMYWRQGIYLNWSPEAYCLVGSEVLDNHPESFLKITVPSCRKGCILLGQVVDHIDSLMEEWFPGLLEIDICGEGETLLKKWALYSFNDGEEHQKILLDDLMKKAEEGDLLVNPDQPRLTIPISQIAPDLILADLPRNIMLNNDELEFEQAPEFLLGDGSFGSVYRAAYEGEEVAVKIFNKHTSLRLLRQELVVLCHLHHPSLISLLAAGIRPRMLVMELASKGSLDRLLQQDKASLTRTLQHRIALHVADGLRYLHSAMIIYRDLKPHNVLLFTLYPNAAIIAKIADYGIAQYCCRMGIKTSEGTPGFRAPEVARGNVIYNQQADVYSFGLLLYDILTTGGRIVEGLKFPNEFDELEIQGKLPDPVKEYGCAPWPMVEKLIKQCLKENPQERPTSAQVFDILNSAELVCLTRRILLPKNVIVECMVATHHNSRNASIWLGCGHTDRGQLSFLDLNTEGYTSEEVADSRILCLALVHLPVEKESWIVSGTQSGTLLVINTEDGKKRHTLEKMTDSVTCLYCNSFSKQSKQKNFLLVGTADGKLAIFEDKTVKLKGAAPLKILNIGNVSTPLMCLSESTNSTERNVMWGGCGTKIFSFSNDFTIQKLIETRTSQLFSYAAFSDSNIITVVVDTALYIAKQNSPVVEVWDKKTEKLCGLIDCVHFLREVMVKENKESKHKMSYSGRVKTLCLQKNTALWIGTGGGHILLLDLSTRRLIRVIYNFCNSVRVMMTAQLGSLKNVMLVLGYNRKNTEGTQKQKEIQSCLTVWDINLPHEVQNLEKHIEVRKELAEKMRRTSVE

Structure (SMILES)	pIC50
CCN1CCN(c2ccc(Nc3nccc(OCC4CCC(O)CC4)n3)nc2)CC1 (stereo not drawn) [Example 133, 4-(((2-((5-(4-ethylpiperazin-1-yl)pyridin-2-yl)amino)pyrimidin-4-yl)oxy)methyl)cyclohexan-1-ol]	< 6.40
CC(=O)NC12CCC(COc3ccnc(Nc4cn(C(C)(C)C#N)nc4C)n3)(CC1)CC2 [Example 78, N-(4-(((2-((1-(2-cyanopropan-2-yl)-3-methyl-1H-pyrazol-4-yl)amino)pyrimidin-4-yl)oxy)methyl)bicyclo [2.2.2]octan-1-yl)acetamide]	6.40 to 6.70
Cc1nn(C(C)(C)C#N)cc1Nc1ncc(F)c(OCC2CCNCC2F)n1 (single isomer, unassigned) [Example 171, 2-(4-((5-fluoro-4-((3-fluoropiperidin-4-yl)methoxy)pyrimidin-2-yl)amino)-3-methyl-1H-pyrazol-1-yl)-2-methylpropanenitrile]	6.40 to 6.70
Cc1nn(C(C)(C)C#N)cc1Nc1ncc(F)c(OCC2(F)CCNCC2)n1 [Example 25, 2-(4-((5-fluoro-4-((4-fluoropiperidin-4-yl)methoxy)pyrimidin-2-yl)amino)-3-methyl-1H-pyrazol-1-yl)-2-methylpropanenitrile]	> 7.30
CC(=O)N[C@H]1CC[C@H](COc2ccnc(Nc3cnn(C(C)C)c3)n2)CC1 [Example 76, N-((1R,4R)-4-(((2-((1-isopropyl-1H-pyrazol-4-yl)amino)pyrimidin-4-yl)oxy)methyl)cyclo-hexyl)acetamide]	6.70 to 7.30
O=S1(=O)CCC(COc2nc(Nc3ccc(N4CCOCC4)cc3)ncc2F)CC1 [Example 287, 4-(((5-fluoro-2-((4-morpholinophenyl)amino)pyrimidin-4-yl)oxy)methyl)tetrahydro-2H-thiopyran 1,1-dioxide]	< 6.40
N[C@H]1CC[C@@H](COc2ccnc(Nc3ccc(N4CCOCC4)cc3)n2)CC1 [Example 1, 4-(((1S,4S)-4-aminocyclohexyl)methoxy)-N-(4-morpholinophenyl) pyrimidin-2-amine]	> 7.30
Cc1nn(C(C)(C)C#N)cc1Nc1ncc(F)c(OC[C@H]2CC[C@H](NC(=O)C(F)(F)F)CC2)n1 [Example 212, N-((1R,4R)-4-(((2-((1-(2-cyanopropan-2-yl)-3-methyl-1H-pyrazol-4-yl)amino)-5-fluoro-pyrimidin-4-yl)oxy)methyl)cyclohexyl)-2,2,2-trifluoro-acetamide]	6.70 to 7.30
CN[C@H]1CC[C@H](COc2nc(Nc3ccc(N4CCOCC4)cc3)ncc2Cl)CC1 [Example 38, 5-chloro-4-(((1R,4R)-4-(methylamino)cyclo-hexyl)methoxy)-N-(4-morpholinophenyl) pyrimidin-2-amine]	> 7.30
COc1nn(C(C)C)cc1Nc1ncc(F)c(OC[C@H]2CC[C@H](O)CC2)n1 [Example 244, (1R,4R)-4-(((5-fluoro-2-((1-isopropyl-3-methoxy-1H-pyrazol-4-yl)amino)pyrimidin-4-yl)oxy)methyl)cyclohexan-1-ol]	< 6.40
CC(=O)N[C@H]1CC[C@H](COc2nc(Nc3cn(C(C)C)nc3C)ncc2F)CC1 [Example 195, N-((1R,4R)-4-(((5-fluoro-2-((1-isopropyl-3-methyl-1H-pyrazol-4-yl)amino)pyrimidin-4-yl)oxy)methyl)cyclo-hexyl)acetamide]	> 7.30

Continued, values first:

pIC50	Structure (SMILES)
> 7.30	N[C@H]1CC[C@H](COc2nc(Nc3ccc(N4CCOCC4)cc3)ncc2F)CC1 [Example 10, 4-(((1R,4R)-4-aminocyclohexyl)methoxy)-5-fluoro-N-(4-morpholinophenyl) pyrimidin-2-amine]
> 7.30	CC(=O)N[C@H]1CC[C@H](COc2nc(Nc3cn(C)nc3Cl)ncc2F)CC1 [Example 201, N-((1R,4R)-4-(((2-((3-chloro-1-methyl-1H-pyrazol-4-yl)amino)-5-fIuoropyrimidin-4-yl)oxy)methyl)cyclo-hexyl)acetamide]
> 7.30	CNC[C@H]1CC[C@H](COc2nc(Nc3ccc(N4CCOCC4)cc3)ncc2Cl)CC1 [Example 49, 5-chloro-4-(((1R,4R)-4-((methylamino)methyl)cyclohexyl)methoxy)-N-(4-morpholinophenyl)py-rimidin-2-amine]
< 6.40	Cc1nn(C(C)(C)C#N)cc1Nc1ncc(F)c(OCC2CS(=O)(=O)C2)n1 [Example 289, 2-(4-((4-((1,1-dioxidothietan-3-yl)methoxy)-5-fluoropyrimidin-2-yl)amino)-3-methyl-1H-pyrazol-1-yl)-2-methylpropanenitrile]
< 6.40	Cc1nn(C(C)(C)C#N)cc1Nc1nc(Cl)c(F)c(OC[C@H]2CC[C@H](O)CC2)n1 [Example 248, 2-(4-((4-chloro-5-fluoro-6-(((1R,4R)-4-hydroxycyclohexyl)methoxy)pyrimidin-2-yl)amino)-3-methyl-1H-pyrazol-1-yl)-2-methylpropanenitrile]
6.70 to 7.30	Cc1nn(C2CC(C#N)C2)cc1Nc1ncc(Cl)c(OCC2CCNCC2F)n1 (stereo not drawn) [Example 26, 3-(4-((5-chloro-4-((3-fluoropiperidin-4-yl)methoxy)pyrimidin-2-yl)amino)-3-methyl-1H-pyrazol-1-yl)cyclobutane-1-carbonitrile]
> 7.30	CN[C@H]1CC[C@H](COc2nc(Nc3cn(C(C)(C)C#N)nc3C)ncc2F)CC1 [Example 43, 2-(4-((5-fluoro-4-(((1R,4R)-4-(methylamino)cyclo-hexyl)methoxy)py-rimidin-2-yl)amino)-3-methyl-1H-pyrazol-1-yl)-2-methylpropanenitrile]
> 7.30	Cc1nn(C(C)(C)C#N)cc1Nc1ncc(Cl)c(OC[C@H]2CC[C@H](C(C)(C)O)CC2)n1 [Example 138, 2-(4-((5-chloro-4-(((1R,4R)-4-(2-hydroxypropan-2-yl)cyclohexyl)methoxy)pyrimidin-2-yl)amino)-3-methyl-1H-pyrazol-1-yl)-2-methylpropanenitrile]
6.40 to 6.70	CC(N[C@H]1CC[C@H](COc2nc(Nc3ccc(N4CCOCC4)cc3)ncc2F)CC1)C(F)(F)F (stereo partly drawn) [Example 116, 5-fluoro-N-(4-morpholino-phenyl)-4-(((1R,4R)-4-((1,1,1-trifluoro-propan-2-yl)amino)cyclohexyl)methoxy) pyrimidin-2-amine]
6.70 to 7.30	O=C(N1CCC(COc2nc(Nc3ccc(N4CCOCC4)cc3)ncc2Cl)CC1)C(F)(F)F [Example 112, 1-(4-(((5-chloro-2-((4-morpholino-phenyl)amino)pyrimidin-4-yl)oxy)methyl)piperidin-1-yl)-2,2,2-trifluoro-ethan-1-one]
< 6.40	CC(=O)N1CCC(COc2nc(Nc3cn(C(C)(C)C#N)nc3C)ncc2F)C(F)C1 (single isomer, unassigned) [Example 177, 2-(4-((4-((1-acetyl-3-fluoropiperidin-4-yl)methoxy)-5-fluoropyrimidin-2-yl)amino)-3-methyl-1H-pyrazol-1-yl)-2-methylpropanenitrile]
> 7.30	COCCn1ncc(Nc2ncc(F)c(OC[C@H]3CC[C@H](NC(C)=O)CC3)n2)c1Cl [Example 205, N-((1R,4R)-4-(((2-((5-chloro-1-(2-methoxyethyl)-1H-pyrazol-4-yl)amino)-5-fluoropyrimidin-4-yl)oxy)methyl)cyclo-hexyl)acetamide]
6.70 to 7.30	CC(C)OC1CCC(COc2nc(Nc3ccc(N4CCOCC4)cc3)ncc2F)CC1 (racemic) [Example 278, 5-fluoro-4-((4-isopropoxycyclohexyl)methoxy)-N-(4-morpholinophenyl)pyrimidin-2-amine]

— patent US11578061B2, “Inhibitors of LRRK2 kinase” (Halia Therapeutics, Inc., priority 2021, dated 2023)
